Data taken from patent US10800791B2, “Triazole ACC inhibitors and uses thereof” (Gilead Apollo, LLC, priority 2015, dated 2020).
In brackets after ≈: the same amount, converted by molar mass. Read-outs that look alike come from different tables or passages of the source.

Tests used:
C. albicans = assay: Antifungal Activity Assay (broth microtiter MIC), C. albicans; type: cell-based, Candida albicans; conditions: Candida albicans, ATCC90028, 48 h
Summary of the method: (§1)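 MICs were scored by eye at 48 h relative to the growth control. Plates followed CLSI M27-A3, with Candida suspensions in RPMI 1640+MOPS giving a final 2.5×10^3 CFU/mL; the colonies came from Sabouraud agar grown overnight at 35 °C.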

C. krusei = assay: Antifungal Activity Assay (broth microtiter MIC), C. krusei; type: cell-based, Candida krusei; conditions: Pichia kudriavzevii, ATCC6258, 48 h
Summary of the method: as §1

C. parapsilosis = assay: Antifungal Activity Assay (broth microtiter MIC), C. parapsilosis; type: cell-based, Candida parapsilosis; conditions: Lodderomyces parapsilosis, ATCC22019, 48 h
Summary of the method: as §1

Botrtyis cinerea (Bc) = assay: Growth inhibition assay of fungal pathogens, Bc; type: cell-based; conditions: 48 h
Summary of the method: (§2)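 Inhibition percentages reflect 48 h OD600 and visual scores relative to a 2% DMSO control. Test concentrations were 50, 10, 2 ppm or 2, 0.4, 0.08 ppm final, applied to spores in 17% V8 medium.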

[1] = test system: Collectotrichum graminicola (Cg); assay: Growth inhibition assay of fungal pathogens, Cg; type: cell-based; conditions: 48 h
Summary of the method: as §2

Diplodia maydis (Dm) = assay: Growth inhibition assay of fungal pathogens, Dm; type: cell-based; conditions: Stenocarpella maydis, 48 h
Summary of the method: as §2

[2] = test system: Fusarium moniliforme (Fm); assay: Growth inhibition assay of fungal pathogens, Fm; type: cell-based; conditions: for IC90: Fusarium verticillioides, 48 h, read-out: Concentration at 90% Inhibition Fm
Summary of the method: as §2

[3] = test system: Fusarium virguliforme (Fv); assay: Growth inhibition assay of fungal pathogens, Fv; type: cell-based; conditions: 48 h
Summary of the method: as §2

[4] = test system: Phytophthora capsici (Pc); assay: Growth inhibition assay of fungal pathogens, Pc; type: cell-based; conditions: 48 h
Summary of the method: as §2

Septoria tritici (St) = assay: Growth inhibition assay of fungal pathogens, St; type: cell-based; conditions: Zymoseptoria tritici, 48 h
Summary of the method: as §2

fungal (fACC2) = fungal (fACC2) (UniProt Q00955); conditions: read-out: fACC2 (in vitro ACC2 Inhibition Assay, IC50), ADP-Glo, 5 nM ACC2, 20 μM ATP, 20 μM acetyl-CoA
[5] = Fusarium moniliforme, growth inhibition at 48 hours vs 2% DMSO control

fungal (fACC2), sequence (Q00955 whole entry): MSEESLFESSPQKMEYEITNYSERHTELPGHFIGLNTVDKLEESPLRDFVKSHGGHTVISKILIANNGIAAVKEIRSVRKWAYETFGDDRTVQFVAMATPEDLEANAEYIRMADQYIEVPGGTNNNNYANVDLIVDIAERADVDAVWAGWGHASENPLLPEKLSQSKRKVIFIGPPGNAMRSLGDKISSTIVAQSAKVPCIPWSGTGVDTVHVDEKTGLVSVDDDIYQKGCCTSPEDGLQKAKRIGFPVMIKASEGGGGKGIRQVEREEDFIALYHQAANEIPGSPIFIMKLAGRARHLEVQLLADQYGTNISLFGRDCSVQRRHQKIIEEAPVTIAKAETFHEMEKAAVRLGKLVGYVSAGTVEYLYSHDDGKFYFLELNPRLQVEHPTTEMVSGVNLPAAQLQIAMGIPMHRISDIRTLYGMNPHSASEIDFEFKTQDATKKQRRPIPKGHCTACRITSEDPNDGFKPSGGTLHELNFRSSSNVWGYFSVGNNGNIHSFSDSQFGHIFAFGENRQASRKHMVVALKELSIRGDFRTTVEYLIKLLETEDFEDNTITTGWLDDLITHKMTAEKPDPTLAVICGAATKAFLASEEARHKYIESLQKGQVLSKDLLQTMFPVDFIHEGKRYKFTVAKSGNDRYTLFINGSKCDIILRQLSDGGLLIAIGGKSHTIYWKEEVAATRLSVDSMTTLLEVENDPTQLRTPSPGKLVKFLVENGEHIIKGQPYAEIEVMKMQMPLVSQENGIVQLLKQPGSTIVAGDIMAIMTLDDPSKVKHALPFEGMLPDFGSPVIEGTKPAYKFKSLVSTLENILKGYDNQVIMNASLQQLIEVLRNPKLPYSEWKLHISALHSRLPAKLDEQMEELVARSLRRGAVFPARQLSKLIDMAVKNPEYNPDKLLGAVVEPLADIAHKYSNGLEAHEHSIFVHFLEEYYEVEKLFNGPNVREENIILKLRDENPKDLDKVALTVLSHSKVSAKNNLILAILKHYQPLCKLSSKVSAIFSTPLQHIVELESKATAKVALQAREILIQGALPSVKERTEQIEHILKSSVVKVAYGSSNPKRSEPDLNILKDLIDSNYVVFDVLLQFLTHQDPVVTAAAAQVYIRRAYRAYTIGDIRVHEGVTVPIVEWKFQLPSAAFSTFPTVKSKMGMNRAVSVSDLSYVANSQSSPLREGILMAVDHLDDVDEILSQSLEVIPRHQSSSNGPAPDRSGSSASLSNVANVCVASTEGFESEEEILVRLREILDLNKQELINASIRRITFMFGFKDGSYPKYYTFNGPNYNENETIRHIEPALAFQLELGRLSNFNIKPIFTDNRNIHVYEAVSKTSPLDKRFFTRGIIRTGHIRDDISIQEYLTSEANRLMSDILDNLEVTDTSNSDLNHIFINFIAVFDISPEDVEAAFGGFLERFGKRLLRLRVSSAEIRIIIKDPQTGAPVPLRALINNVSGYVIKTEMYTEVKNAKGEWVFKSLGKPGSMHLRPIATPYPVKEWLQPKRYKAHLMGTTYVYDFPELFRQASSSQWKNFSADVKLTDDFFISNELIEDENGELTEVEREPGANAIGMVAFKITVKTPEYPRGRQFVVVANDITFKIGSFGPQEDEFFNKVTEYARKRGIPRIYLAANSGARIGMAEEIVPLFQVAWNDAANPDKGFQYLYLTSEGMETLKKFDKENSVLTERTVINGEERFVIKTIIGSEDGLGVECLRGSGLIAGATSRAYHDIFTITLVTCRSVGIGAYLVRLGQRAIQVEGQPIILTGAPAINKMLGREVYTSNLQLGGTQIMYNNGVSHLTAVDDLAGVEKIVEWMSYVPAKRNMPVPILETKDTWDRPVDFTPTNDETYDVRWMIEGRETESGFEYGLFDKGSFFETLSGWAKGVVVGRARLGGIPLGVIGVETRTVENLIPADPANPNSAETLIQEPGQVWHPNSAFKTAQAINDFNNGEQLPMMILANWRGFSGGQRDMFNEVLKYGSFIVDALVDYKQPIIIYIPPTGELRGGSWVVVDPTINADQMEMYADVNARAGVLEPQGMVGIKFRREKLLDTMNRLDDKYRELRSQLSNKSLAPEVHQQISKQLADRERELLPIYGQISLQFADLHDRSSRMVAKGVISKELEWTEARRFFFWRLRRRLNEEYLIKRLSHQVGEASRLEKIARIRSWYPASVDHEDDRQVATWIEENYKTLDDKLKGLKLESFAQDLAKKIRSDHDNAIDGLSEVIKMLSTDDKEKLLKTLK

COc1ccc(F)cc1[C@H](Cn1c(=O)n(C(C)(C)C(=O)NC2CCC2)c(=O)c2c(C)c(-n3nccn3)sc21)OC1CCOCC1 [Compound I-27, (R)—N-cyclobutyl-2-(1-(2-(5-fluoro-2-methoxyphenyl)-2-((tetrahydro-2H-pyran-4-yl)oxy)ethyl)-5-methyl-2,4-dioxo-6-(2H-1,2,3-triazol-2-yl)-1,4-dihydrothieno[2,3-d]pyrimidin-3(2H)-yl)-2-methylpropanamide]
MIC (C. albicans; Table 3a, ATCC 90028, 3 replicates, MIC recorded at 48 h, read-out: MIC, C. albicans ATCC 90028): 0.25 to 1 µg/mL (≈ 0.39 to 1.56 µM)
MIC (C. albicans; Table 3b (additional results), ATCC 90028, 3 replicates, MIC recorded at 48 h, read-out: MIC, C. albicans ATCC 90028): 0.25 to 1 µg/mL (≈ 0.39 to 1.56 µM)
MIC (C. krusei; Table 3a, ATCC 6258, 3 replicates, MIC recorded at 48 h, read-out: MIC, C. krusei ATCC 6258): 0.06 to 0.24 µg/mL (≈ 0.0936 to 0.375 µM)
MIC (C. krusei; Table 3b (additional results), ATCC 6258, 3 replicates, MIC recorded at 48 h, read-out: MIC, C. krusei ATCC 6258): 0.06 to 0.249 µg/mL (≈ 0.0936 to 0.389 µM)
MIC (C. parapsilosis; Table 3a, ATCC 22019, 3 replicates, MIC recorded at 48 h, read-out: MIC, C. parapsilosis ATCC 22019): 0.25 to 1 µg/mL (≈ 0.39 to 1.56 µM)
MIC (C. parapsilosis; Table 3b (additional results), ATCC 22019, 3 replicates, MIC recorded at 48 h, read-out: MIC, C. parapsilosis ATCC 22019): 0.25 to 1 µg/mL (≈ 0.39 to 1.56 µM)
IC90 (Botrtyis cinerea (Bc); Botrtyis cinerea, growth inhibition at 48 hours vs 2% DMSO control, read-out: Concentration at 90% Inhibition Bc): 0.4 µg/mL (≈ 0.624 µM)
IC90 (Botrtyis cinerea (Bc); Botrtyis cinerea, growth inhibition vs 2% DMSO control at 48 hours, read-out: Concentration at 90% Inhibition Bc): 0.4 µg/mL (≈ 0.624 µM)
IC90 ([1]; Collectotrichum graminicola, growth inhibition at 48 hours vs 2% DMSO control, read-out: Concentration at 90% Inhibition Cg): 0.4 µg/mL (≈ 0.624 µM)
IC90 ([1]; Collectotrichum graminicola, growth inhibition vs 2% DMSO control at 48 hours, read-out: Concentration at 90% Inhibition Cg): 0.4 µg/mL (≈ 0.624 µM)
IC90 (Diplodia maydis (Dm); Diplodia maydis, growth inhibition at 48 hours vs 2% DMSO control, read-out: Concentration at 90% Inhibition Dm): 0.4 µg/mL (≈ 0.624 µM)
IC90 (Diplodia maydis (Dm); Diplodia maydis, growth inhibition vs 2% DMSO control at 48 hours, read-out: Concentration at 90% Inhibition Dm): 0.4 µg/mL (≈ 0.624 µM)
IC90 [2, 5]: 0.08 µg/mL (≈ 0.125 µM)
IC90 ([2]; Fusarium moniliforme, growth inhibition vs 2% DMSO control at 48 hours): 0.08 µg/mL (≈ 0.125 µM)
IC90 ([3]; growth inhibition at 48 hours vs 2% DMSO control, read-out: Concentration at 90% Inhibition Fv): 0.4 µg/mL (≈ 0.624 µM)
IC90 ([3]; growth inhibition vs 2% DMSO control at 48 hours, read-out: Concentration at 90% Inhibition Fv): 0.4 µg/mL (≈ 0.624 µM)
IC90 ([4]; growth inhibition at 48 hours vs 2% DMSO control, read-out: Concentration at 90% Inhibition Pc): 10 µg/mL (≈ 15.6 µM)
IC90 ([4]; growth inhibition vs 2% DMSO control at 48 hours, read-out: Concentration at 90% Inhibition Pc): > 50 µg/mL
IC90 (Septoria tritici (St); Septoria tritici, growth inhibition at 48 hours vs 2% DMSO control, read-out: Concentration at 90% Inhibition St): 2 µg/mL (≈ 3.12 µM)
IC90 (Septoria tritici (St); Septoria tritici, growth inhibition vs 2% DMSO control at 48 hours, read-out: Concentration at 90% Inhibition St): 10 µg/mL (≈ 15.6 µM)
IC50 (fungal (fACC2); Table 2a): 1 to 5 nM
IC50 (fungal (fACC2); Table 2b, additional results): 1 to 5 nM

COc1ccc(F)cc1[C@H](Cn1c(=O)n(C(C)(C)C(=O)NC2CCCCC2)c(=O)c2c(C)c(-n3nccn3)sc21)OC1CCOCC1 [Compound I-28, (R)—N-cyclohexyl-2-(1-(2-(5-fluoro-2-methoxyphenyl)-2-((tetrahydro-2H-pyran-4-yl)oxy)ethyl)-5-methyl-2,4-dioxo-6-(2H-1,2,3-triazol-2-yl)-1,4-dihydrothieno[2,3-d]pyrimidin-3(2H)-yl)-2-methylpropanamide]
MIC (C. albicans; read-out: MIC, C. albicans ATCC 90028, Table 3a, 3 replicates, MIC recorded at 48 h): 0.25 to 1 µg/mL (≈ 0.374 to 1.5 µM)
MIC (C. albicans; read-out: MIC, C. albicans ATCC 90028, Table 3b (additional results), 3 replicates, MIC recorded at 48 h): 0.25 to 1 µg/mL (≈ 0.374 to 1.5 µM)
MIC (C. krusei; read-out: MIC, C. krusei ATCC 6258, Table 3a, 3 replicates, MIC recorded at 48 h): 0.06 to 0.24 µg/mL (≈ 0.0897 to 0.359 µM)
MIC (C. krusei; read-out: MIC, C. krusei ATCC 6258, Table 3b (additional results), 3 replicates, MIC recorded at 48 h): 0.06 to 0.249 µg/mL (≈ 0.0897 to 0.372 µM)
MIC (C. parapsilosis; read-out: MIC, C. parapsilosis ATCC 22019, Table 3a, 3 replicates, MIC recorded at 48 h): 0.25 to 1 µg/mL (≈ 0.374 to 1.5 µM)
MIC (C. parapsilosis; read-out: MIC, C. parapsilosis ATCC 22019, Table 3b (additional results), 3 replicates, MIC recorded at 48 h): 0.25 to 1 µg/mL (≈ 0.374 to 1.5 µM)
IC90 (Botrtyis cinerea (Bc); read-out: Concentration at 90% Inhibition Bc, Botrtyis cinerea, growth inhibition at 48 hours vs 2% DMSO control): 0.4 µg/mL (≈ 0.598 µM)
IC90 (Botrtyis cinerea (Bc); read-out: Concentration at 90% Inhibition Bc, Botrtyis cinerea, growth inhibition vs 2% DMSO control at 48 hours): 0.4 µg/mL (≈ 0.598 µM)
IC90 ([1]; read-out: Concentration at 90% Inhibition Cg, Collectotrichum graminicola, growth inhibition at 48 hours vs 2% DMSO control): 2 µg/mL (≈ 2.99 µM)
IC90 ([1]; read-out: Concentration at 90% Inhibition Cg, Collectotrichum graminicola, growth inhibition vs 2% DMSO control at 48 hours): 2 µg/mL (≈ 2.99 µM)
IC90 (Diplodia maydis (Dm); read-out: Concentration at 90% Inhibition Dm, Diplodia maydis, growth inhibition at 48 hours vs 2% DMSO control): 0.4 µg/mL (≈ 0.598 µM)
IC90 (Diplodia maydis (Dm); read-out: Concentration at 90% Inhibition Dm, Diplodia maydis, growth inhibition vs 2% DMSO control at 48 hours): 0.4 µg/mL (≈ 0.598 µM)
Concentration at 90% Inhibition Fm [2, 5]: AA (compound concentration of 0.08 ppm at 90% inhibition of fungal pathogens)
IC90 [2]: 0.08 µg/mL (≈ 0.12 µM)
IC90 ([3]; read-out: Concentration at 90% Inhibition Fv, Fusarium virguliforme, growth inhibition at 48 hours vs 2% DMSO control): 0.4 µg/mL (≈ 0.598 µM)
IC90 ([3]; read-out: Concentration at 90% Inhibition Fv, Fusarium virguliforme, growth inhibition vs 2% DMSO control at 48 hours): 0.4 µg/mL (≈ 0.598 µM)
IC90 ([4]; read-out: Concentration at 90% Inhibition Pc, Phytophthora capsici, growth inhibition at 48 hours vs 2% DMSO control): > 50 µg/mL
IC90 ([4]; read-out: Concentration at 90% Inhibition Pc, Phytophthora capsici, growth inhibition vs 2% DMSO control at 48 hours): > 50 µg/mL
IC90 (Septoria tritici (St); read-out: Concentration at 90% Inhibition St, Septoria tritici, growth inhibition at 48 hours vs 2% DMSO control): 2 µg/mL (≈ 2.99 µM)
IC90 (Septoria tritici (St); read-out: Concentration at 90% Inhibition St, Septoria tritici, growth inhibition vs 2% DMSO control at 48 hours): 10 µg/mL (≈ 15 µM)
IC50 (fungal (fACC2); Table 2a): 1 to 5 nM
IC50 (fungal (fACC2); Table 2b, additional results): 1 to 5 nM
